The record followed here is patent US7468375B2 (Pfizer Inc., priority 2004, dated 2008).

The target of assay [1] is T1, Full-length wild type HIV-1 integrase (SF1) (Human immunodeficiency virus type 1 group M subtype B, UniProt P04585).
T1 construct: made in house; host or cells: E. coli BL21 (DE3)
Description: Integrase strand-transfer scintillation proximity assay. In kind it is biochemical. The conditions noted are these: strand transfer, 50 min at 37° C., 246 nM integrase, 50 nM host DNA; read-out: IC50. An excerpt: Integrase Strand-Transfer Scintillation Proximity Assay Oligonucleotides
Oligonucleotide #1-5′-(biotin)[…]-3′ (SEQ ID NO: 1) and oligonucleotide #2-5′-[…]-3′ (SEQ ID NO: 2), were synthesized by TriLink BioTechnologies, Inc. (San Diego, Calif.). The annealed product represents preprocessed viral ds-DNA derived from the LTR U5 sequence of the viral genome. A ds-DNA control to test for non-specific interactions was made using a 3′ di-deoxy derivative of oligonucleotide #1 annealed to oligonucleotide #2. The CA overhang at the 5′ end of the non-biotinylated strand of the ds-DNA was created artificially by using a complimentary DNA oligonucleotide shortened by 2 base pairs. This configuration eliminates the requisite 3′ processing step of the integrase enzyme prior to the strand-transfer mechanism. Host ds-DNA was prepared as an unlabeled and [^3H]-thymidine labeled product from annealed oligonucleotide #3-5-[…]-3′ (SEQ ID NO: 3), and oligonucleotide #4-5′-[…]-3′ (SEQ ID NO: 4), both synthesized by TriLink BioTechnologies, Inc. (San Diego, Calif.). The annealed product had overhanging 3′ ends of poly(dA). Host DNA was custom radiolabeled by PerkinElmer Life Sciences Inc. (Boston, Mass.) using an enzymatic method with a 12/1 ratio of [methyl-3H]dTTP/cold ds-DNA to yield 5′-blunt end ds-DNA with a specific activity of >900 Ci/mmol. The radiolabeled product was purified using a NENSORB cartridge and stored in stabilized aqueous solution (PerkinElmer). The final radiolabeled product had six [^3H]-thymidine nucleotides at both 5′ ends of the host ds-DNA. Reagents: Streptavidin-coated polyvinyltoluene (PVT) SPA beads were purchased from Amersham Biosciences (Piscataway, N.J.). Cesium chloride was purchased from Shelton Scientific, Inc. (Shelton, Conn.). White, polystyrene, flat-bottom, non-binding surface, 96-well plates were purchased from Corning. All other buffer components were purchased from Sigma (St. Louis, Mo.) unless otherwise indicated.
Enzyme Construction: Full-length wild type HIV-1 integrase (SF1) sequence (amino acids 1-288) was constructed in a pET24a vector (Novagen, Madison, Wis.). The construct was confirmed through DNA sequencing. Enzyme Purification: Full length wild-type HIV Integrase was expressed in E. coli BL21 (DE3) cells and induced with 1 mM isopropyl-1 thio-β-D-galactopyranoside (IPTG) when cells reached an optical density between 0.8-1.0 at 600 nm. Cells were lysed by microfluidation in 50 mM HEPES pH 7.0, 75 mM NaCl, 5 mM DTT, 1 mM 4-(2-Aminoethyl)benzenesulfonylfluoride HCl (AEBSF). Lysate was then centrifuged 20 minutes at 11 k rpm in GSA rotor in Sorvall RC-5B at 4° C. Supernant was discarded and pellet resuspended in 50 mM HEPES pH 7.0, 750 mM NaCl, 5 mM DTT, 1 mM AEBSF and homogenized in a 40 mL Dounce homogenizer for 20 minutes on ice. Homogenate was then centrifuged 20 minutes at 11 k rpm in SS34 rotor in Sorvall RC-5B at 4° C. Supernant was discarded and pellet resuspended in 50 mM HEPES pH 7.0, 750 mM NaCl, 25 mM CHAPS, 5 mM DTT, 1 mM AEBSF. Preparation was then centrifuged 20 minutes at 11 k rpm in SS34 rotor in Sorvall RC-5B at 4° C. Supernant was then diluted 1:1 with 50 mM HEPES pH 7.0, 25 mM CHAPS, 1 mM DTT, 1 mM AEBSF and loaded onto a Q-Sepharose column pre-equilibrated with 50 mM HEPES, pH 7.0, 375 mM NaCl, 25 mM CHAPS, 1 mM DTT, 1 mM AEBSF. The flow through peak was collected and NaCl diluted to 0.1 M with 50 mM HEPES pH 7.0, 25 mM CHAPS, 1 mM DTT, 0.5 mM AEBSF and loaded onto a SP-Sepharose column pre-equilibrated with 50 mM HEPES pH 7.0, 100 mM NaCl, 25 mM CHAPS, 1 mM DTT, 0.5 mM AEBSF. After washing the column with the equilibration buffer, a 100 to 400 mM NaCl gradient was run. The eluted integrase was concentrated and run on a S-300 gel diffusion column using 50 mM HEPES pH 7.0, 500 mM NaCl, 25 mM CHAPS, 1 mM DTT, 0.5 mM AEBSF. The peak from this column was concentrated to 0.76 mg/mL and stored at −70° C. and later used for strand transfer assays. […]
Background: In a scintillation proximity assay essentially only radioactivity close to the scintillant gives light.

The subject of assay [2] is RF strain of HIV-1 in CEM-SS cells. Description: HIV-1 cell protection assay (XTT dye reduction). Particulars: Human immunodeficiency virus 1, CEM-SS, 144 h, HIV-1 RF, CEM-SS cells, XTT dye reduction, six days; read-out: EC50. The format is cell-based. As to the method:
HIV-1 Cell Protection Assay
The antiviral activities of potential modulator compounds (test compounds) were determined in HIV-1 cell protection assays using the RF strain of HIV-1, CEM-SS cells, and the XTT dye reduction method (Weislow, O. S. et al., J. Natl. Cancer Inst. 81: 577-586 (1989)). Subject cells were infected with HIV-1 RF virus at an moi of 0.025 to 0.819 or mock infected with medium only and added at 2×10^4 cells per well into 96 well plates containing half-log dilutions of test compounds. Six days later, 50 μl of XTT solution (1 mg/ml XTT tetrazolium and […] phenazine methosulfate) were added to the wells and the plates were reincubated for four hours. Viability, as determined by the amount of XTT formazan produced, was quantified spectrophotometrically by absorbance at 450 nm. Data from CPE assays were expressed as the percent of formazan produced in compound-treated cells compared to formazan produced in wells of uninfected, compound-free cells. […] The therapeutic index was calculated by dividing the cytotoxicity (CC50) by the antiviral activity (EC50).
For orientation: Tetrazolium dyes change colour on reduction, which living cells bring about.

As to `CC(C)N(O)C(=O)c1cc2ccn(Cc3ccc(F)cc3)c2cn1` [Example 27, 1-(4-Fluorobenzyl)-N-hydroxy-N-isopropyl-1H-pyrrolo[2,3-c]pyridine-5-carboxamide], the IC50 in assay [1] is 8000 nM. In addition, the EC50 in assay [2] was found to be 3500 nM.
Take `C[C@@H](NCc1cn(Cc2ccc(F)cc2F)c2cnc(C(=O)NO)cc12)[C@@H](O)c1ccccc1` (stereo in doubt) [Example 86, 1-(2,4-Difluorobenzyl)-N-hydroxy-3-{[(2-hydroxy-1-methyl-2-phenylethyl)amino]methyl}-1H-pyrrolo[2,3-c]pyridine-5-carboxamide]: the IC50 in assay [1] is 314 nM. Further, the EC50 in assay [2] turned out to be 11 nM.
In the case of `CCC(CC)NCc1cn(Cc2ccc(F)cc2F)c2cnc(C(=O)NO)cc12` [Example 82, 1-(2,4-Difluorobenzyl)-3-{[(1-ethylpropyl)amino]methyl}-N-hydroxy-1H-pyrrolo[2,3-c]pyridine-5-carboxamide], the IC50 in assay [1] amounted to 634 nM. Also, the EC50 in assay [2] is 23 nM.
Regarding `CC(C)CN(O)C(=O)c1cc2ccn(Cc3ccc(F)cc3)c2cn1` [Example 29, 1-(4-Fluorobenzyl)-N-hydroxy-N-isobutyl-1H-pyrrolo[2,3-c]pyridine-5-carboxamide], in assay [1], the IC50 turned out to be 1700 nM. In addition, in assay [2], the EC50 is 1400 nM.
As to `Cc1ccc2c(c1)C(NCc1cn(Cc3ccc(F)cc3F)c3cnc(C(=O)NO)cc13)CCO2` (stereo not drawn) [Example 98, 1-(2,4-difluorobenzyl)-N-hydroxy-3-{[(6-methyl-3,4-dihydro-2H-chromen-4-yl)amino]methyl}-1H-pyrrolo[2,3-c]pyridine-5-carboxamide], the 50% inhibitory concentration (IC50) in assay [1] came out at 256 nM. Also, the EC50 in assay [2] was found to be 100 nM.
As to `O=C(NO)c1cc2c(CNCc3ccc(OC(F)F)cc3)cn(Cc3ccc(F)cc3F)c2cn1` [Example 94, 1-(2,4-Difluorobenzyl)-3-({[4-(difluoromethoxy)benzyl]amino}methyl)-N-hydroxy-1H-pyrrolo[2,3-c]pyridine-5-carboxamide], in assay [1], the IC50 came out at 288 nM. Moreover, the EC50 in assay [2] came to 26 nM.
On to `O=C(NO)c1cc2c(CN[C@@H]3C[C@H]4CC[C@@H]3C4)cn(Cc3ccc(F)cc3F)c2cn1` [Example 74, 3-{[(1R,2R,4S)-Bicyclo[2.2.1]hept-2-ylamino]methyl}-1-(2,4-difluorobenzyl)-N-hydroxy-1H-pyrrolo[2,3-c]pyridine-5-carboxamide], for which the IC50 in assay [1] was 357 nM. In assay [2], the EC50 came out at 32 nM.
As to `O=C(NO)c1cc2c(CNCCc3ccc(F)cc3)cn(Cc3ccc(F)cc3F)c2cn1` [Example 85, 1-(2,4-Difluorobenzyl)-3-(J[2-(4-fluorophenyl)ethyl]aminomethyl)-N-hydroxy-1H-pyrrolo[2,3-c]pyridine-5-carboxamide], the IC50 in assay [1] came to 224 nM. The EC50 in assay [2] was determined as 33 nM.
In the case of `O=C(NO)c1cc2c(CNCCN3CCCC3)cn(Cc3ccc(F)cc3F)c2cn1` [Example 57, 1-(2,4-Difluorobenzyl)-N-hydroxy-3-{[(2-pyrrolidin-1-ylethyl)amino]methyl}-1H-pyrrolo[2,3-c]pyridine-5-carboxamide], the 50% inhibitory concentration (IC50) in assay [1] amounted to 542 nM. In addition, the EC50 in assay [2] was 24 nM.
For `CN1CCN(CCCNCc2cn(Cc3ccc(F)cc3F)c3cnc(C(=O)NO)cc23)CC1` [Example 52, 1-(2,4-Difluorobenzyl)-N-hydroxy-3-({[3-(4-methylpiperazin-1-yl)propyl]amino}methyl)-1H-pyrrolo[2,3-c]pyridine-5-carboxamide], the IC50 in assay [1] was 781 nM. In addition, the half-maximal effective concentration (EC50) in assay [2] was determined as 260 nM.
`CC1CCCN1Cc1cn(Cc2ccc(F)cc2F)c2cnc(C(=O)NO)cc12` (stereo not drawn) [Example 81, 1-(2,4-Difluorobenzyl)-N-hydroxy-3-[(2-methylpyrrolidin-1-yl)methyl]-1H-pyrrolo[2,3-c]pyridine-5-carboxamide]: the half-inhibitory concentration (IC50) in assay [1] came to 499 nM. In addition, in assay [2], the EC50 was 40 nM.
On the same counts, the results for `O=C(NO)c1cc2ncn(Cc3ccc(F)cc3)c2cn1` [Example 21, 3-(4-Fluorobenzyl)-N-hydroxy-3H-imidazo[4,5-c]pyridine-6-carboxamide] are 517 nM and 84 nM.
Turning to `Cc1nnc(CCNCc2cn(Cc3ccc(F)cc3F)c3cnc(C(=O)NO)cc23)[nH]1` [Example 100, 1-(2,4-Difluorobenzyl)-N-hydroxy-3-({[2-(5-methyl-4H-1,2,4-triazol-3-yl)ethyl]amino}methyl)-1H-pyrrolo[2,3-c]pyridine-5-carboxamide], the IC50 in assay [1] stood at 270 nM. The half-maximal effective concentration (EC50) in assay [2] was determined as 10000 nM.
Regarding `O=C(NO)c1cc2c(CNCCc3c[nH]c4ccccc34)cn(Cc3ccc(F)cc3F)c2cn1` [Example 67, 1-(2,4-Difluorobenzyl)-N-hydroxy-3-({[2-(1H-indol-3-yl)ethyl]amino}methyl)-1H-pyrrolo[2,3-c]pyridine-5-carboxamide], the IC50 in assay [1] was 283 nM. Also, in assay [2], the concentration for a half-maximal effect (EC50) came to 15 nM.
`C=CCONC(=O)c1cc2c(CN3CCNC(=O)C3)cn(Cc3ccc(F)cc3)c2cn1` [Example 103, N-(Allyloxy)-1-(4-fluorobenzyl)-3-[(3-oxopiperazin-1-yl)methyl]-1H-pyrrolo[2,3-c]pyridine-5-carboxamide]: the concentration for half-maximal inhibition (IC50) in assay [1] amounted to 702 nM. The EC50 in assay [2] is 130 nM.
On the same counts, the results for `O=C(NO)c1cc2c(COC[C@@H](O)CO)cn(Cc3ccc(F)cc3F)c2cn1` [Example 106] are 12 nM and 66.3 nM.
On the same counts, the results for `CN(O)C(=O)c1cc2c(COCCN3CCCC3=O)cn(Cc3ccc(F)cc3)c2cn1` [Example 117, 1-(4-Fluorobenzyl)-N-hydroxy-N-methyl-3-{[2-(2-oxopyrrolidin-1-yl)ethoxy]methyl}-1H-pyrrolo[2,3-c]pyridine-5-carboxamide] are 200 nM and 401 nM.
On the same counts, the results for `O=C(NO)c1cc2c(CN[C@H](CO)Cc3c[nH]c4ccccc34)cn(Cc3ccc(F)cc3F)c2cn1` [Example 77, 1-(2,4-Difluorobenzyl)-N-hydroxy-3-({[(1S)-2-hydroxy-1-(1H-indol-3-ylmethyl)ethyl]amino}methyl)-1H-pyrrolo[2,3-c]pyridine-5-carboxamide] are 483 nM and 360 nM.

One may read the IC50 as the concentration that gives 50% inhibition. One may read the EC50 as the concentration needed to bring the measured effect to its halfway point.
